Measured values taken from patent publication US6927035B1, “Antiuracil monoclonal antibody” (Taiho Pharmaceutical Co., LTD, priority 1999, dated 2005).
Converted amounts (≈) assume the structure as drawn.

Legend:
[1] = tested on: monoclonal antibody of the present invention (CMU-1); assay: indirect competitive inhibition ELISA, cross reactivity test with monoclonal antibody CMU-1; format: binding, mouse; conditions: for percent absorption (reactivity) with monoclonal antibody CMU-1: compound final concentration 0.5 mg/mL, uracil-BSA coated plate, absorbance at 415 nm; for dose-dependent response of the antibody to the compound / ED30 (concentration when the percent absorption reached 30%) / binding ability relative to pseudouridine: monoclonal antibody CMU-1; for binding ability relative to pseudouridine: ratio of ED30 values
Description: Into a 96-well immunoplate, uracil-BSA complex (10 μg/mL as reduced to BSA) was placed at 50 μL/well, and allowed to stand overnight at 4° C. Subsequently, the immunoplate was washed 7 times with PBS containing 0.1% polyoxyethylene(20) sorbitan monolaurate (product of Wako Pure Chemical Industries, Ltd.; a product equivalent to Tween 20) (pH 7.3-7.7, product of Nissui Chemical; hereinafter referred to as PBS-T). Subsequently, 0.2% gelatin (200 μL) was added to each well, and the immunoplate was left for 2 hours at 37° C., or overnight at 4° C.
Subsequently, the immunoplate was washed five times with PBS-T, and one of the below-described samples (50 μL/well) was added to the immunoplate, which was then left for 1 hour at 37° C. • (i) a reaction mixture prepared by mixing the supernatant of the hybridoma culture obtained in Example 3 (hereinafter referred to as the hybridoma culture supernatant) (30 μL) and PBS (30 μL) for reaction at 37° C. for one hour; • a (ii) a reaction mixture obtained by mixing the hybridoma culture supernatant (30 μL) and a solution (30 μL) of uracil in PBS (uracil concentration: 1 mg/mL) for reaction at 37° C. for one hour; and • (iii) 1 μg/mL healthy mouse IgG (product of Biological). Subsequently, the wells were washed five times with PBS-T, and to each well was added alkaline-phosphatase-labeled (AP-labeled) anti-mouse-multivalent-immunoglobulin antibody (product of Sigma), which had been 1,000-fold diluted with 0.1% gelatin, (50 μL). Subsequently, the mixture was allowed to stand for one hour at 37° C. Subsequently, the wells were washed five times with PBS-T. A solution of disodium p-nitrophenylphosphate (product of Wako Chemical Industries, Ltd.) dissolved in substrate buffer (1 mg/mL) was added to each well (100 μL/well), and left for 30 minutes at 37° C. To the reaction mixtures, 2N NAOH (50 μL/well) was added and then mixed by use of a platemixer, to thereby stop the reaction. Absorbance at 415 nm was measured by use of a microplate reader.
The percent absorption was calculated by use of the following equation: [formula] wherein, • ODPBS: Absorbance measured by means of ELISA for a sample in which the hybridoma culture supernatant had been pre-treated only with PBS), • ODuracil: Absorbance measured by means of ELISA for a sample in which the hybridoma culture supernatant had been pre-treated with uracil in PBS), and • ODcontrol: Absorbance measured in ELISA of a sample treated only with heal thy mouse IgG).
By use of the hybridoma culture supernatant obtained from the above-described incubation, the reactivity of the monoclonal antibody, CMU-1, of the present invention was studied through the indirect competitive inhibition ELISA described in Example 4.
Specifically, an aliquot (50 μL) of uracil-BSA complex (10 μg/mL) was placed in each well of a 96-well immunoplate (Immunoplate I, product of Nunc), and allowed to stand overnight at 4° C. Each well was washed five times with PBS-T (200 μL) containing 0.1% Tween 20. Subsequently, to each well of the immunoplate, PBS (200 μL) containing 0.2% gelatin serving as a blocking agent was added, and the mixture was allowed to stand overnight at 4° C. Each well was again washed five times with PBS-T, to thereby prepare a plate.
Meanwhile, each of the follow samples: • (i) a mixture of the aforementioned hybridoma culture supernatant (30 μL) and PBS (30 μL); • (ii) a reaction mixture obtained by mixing the hybridoma culture supernatant (30 μL) and PBS (30 μL) containing uracil at a concentration of 0.03-1.0 mg/mL and causing reaction to proceed at 37° C. for one hour; and • (iii) […] healthy mouse IgG (product of Biologicals) was added to a 96-well plate to which the above antigen had been adsorbed (50 μL/well), and the plate was left to stand for one hour at 37° C. […]

[2] = tested on: monoclonal antibody (SU-1) derived from hybridoma FERM BP-6141; assay: indirect competitive inhibition ELISA, cross reactivity test with comparative monoclonal antibody SU-1; format: binding; conditions: compound final concentration 0.5 mg/mL; uracil-BSA coated plate; absorbance at 415 nm
Description: Meanwhile, each of the follow samples: • (i) a mixture of the aforementioned hybridoma culture supernatant (30 μL) and PBS (30 μL); • (ii) a reaction mixture obtained by mixing the hybridoma culture supernatant (30 μL) and PBS (30 μL) containing uracil at a concentration of 0.03-1.0 mg/mL and causing reaction to proceed at 37° C. for one hour; and • (iii) […] healthy mouse IgG (product of Biologicals) was added to a 96-well plate to which the above antigen had been adsorbed (50 μL/well), and the plate was left to stand for one hour at 37° C. Subsequently, the plate was washed five times with PBS-T, and to each well, aliquots (50 μL) of AP-labeled anti-mouse antibody (serving as the second antibody, product of Sigma), which had been 1,000-fold diluted with PBS containing 0.1% gelatin, were added, and the mixtures were allowed to stand for one hour at 37° C. Subsequently, each well was washed five times with PBS-T. An enzyme substrate buffer solution (p-nitrophenylphosphate, 1 mg/mL, pH 9.8) was added to each well (100 μl/well), and left to stand for 30 minutes at 37° C. To the reaction mixtures, 2N NaOH ([…]) was added, to thereby stop the reaction. Absorbance at 415 nm was measured by use of a microplate reader. For comparison, the same procedure was independently performed on hybridoma FERM BP-6141 described in PCT publication No. WO99/20748. The percent absorption was calculated from the above-described equation.
In a manner similar to that of Example 7, reactivity of the monoclonal antibody of the present invention with other compounds was investigated. Specifically, the procedure of step (ii) of Example 7 for investigating inhibition with uracil was repeated, except that pseudouridine, dihydrouracil, dihydrothymine, thymine, cytosine, or N-carbamyl-β-alanine (1 mg/mL) was used instead of uracil (1 mg/mL), to thereby investigate reactivity of the monoclonal antibody of the present invention with uracil compounds. As a comparative antibody, a monoclonal antibody (SU-1) derived from hybridoma “FERM BP-6141” described in WO 99/20748 was used.

[3] = tested on: monoclonal antibody for psuedouridine; conditions: prior art antibody used for diagnosing a progressive cancer; cited from earlier work

binding ability relative to pseudouridine [1] [times] | SMILES | percent absorption (reactivity) with monoclonal antibody CMU-1 [1] | dose-dependent response of the antibody to the compound [1] | percent absorption (reactivity) with comparative monoclonal antibody SU-1 [2] [%] | reactivity with the monoclonal antibody for pseudouridine [3] | ED30 (concentration when the percent absorption reached 30%) [1] [mg/L] | concentration range in which the compound is detected ([1]; monoclonal antibody CMU-1, FIG. 1) [mg/mL]
– | Nc1cc[nH]c(=O)n1 [Cytosine] | 15% | no dose-dependent response | 15 | – | – | –
– | CC1CNC(=O)NC1=O (stereo not shown) [Dihydrothymine] | 22% | no dose-dependent response | – | – | – | –
– | O=C1CCNC(=O)N1 [Dihydrouracil] | 8% | no dose-dependent response | 2 | – | – | –
– | NC(=O)NCCC(=O)O [N-Carbamyl-β-alanine] | 8% | no dose-dependent response | 91 | – | – | –
– | O=c1[nH]cc([C@@H]2O[C@H](CO)[C@@H](O)[C@H]2O)c(=O)[nH]1 [Pseudouridine] | 32% | did exhibit dose-dependent response | 26 | 95-99% | 390 (≈ 1600 µM) | –
26 | Cc1c[nH]c(=O)[nH]c1=O [Thymine] | 91-97% | exhibited dose-dependent response | 5 | – | 15 (≈ 119 µM) | –
13 | O=c1cc[nH]c(=O)[nH]1 [Uracil] | 95-96% | exhibited dose-dependent response | 41 | 30-40% | 30 (≈ 268 µM) | 0.005 to 0.5
